From the NIST ThermoML archive (doi:10.1016/j.jct.2015.04.027)

Assay: xn = mol fraction of the nth substance listed
Conditions: 100 kPa, Liquid; for viscosity: Falling or rolling sphere viscometry; for mass density: Vibrating tube method

CN(C)C(=[NH2+])N(C)C.c1c[n-]cn1 [1,1,3,3-tetramethylguanidinium imidazol-1-ide] + CCCO
Conditions	mass density, 293.15 K [kg/m3]	mass density, 298.15 K [kg/m3]	mass density, 303.15 K [kg/m3]	mass density, 308.15 K [kg/m3]	mass density, 313.15 K [kg/m3]	viscosity, 293.15 K [mPa·s]	viscosity, 298.15 K [mPa·s]	viscosity, 303.15 K [mPa·s]	viscosity, 308.15 K [mPa·s]	viscosity, 313.15 K [mPa·s]
x1 = 0.0499	828.16	824.06	819.94	815.79	811.6	2.428	2.146	1.91	1.707	1.532
x1 = 0.0999	849.03	844.89	840.71	836.52	832.3	2.667	2.354	2.095	1.873	1.682
x1 = 0.2002	882.18	877.95	873.7	869.43	865.15	3.294	2.886	2.55	2.268	2.029
x1 = 0.2996	907.96	903.66	899.35	895.03	890.71	4.062	3.516	3.078	2.712	2.406
x1 = 0.4002	928.67	924.33	919.98	915.62	911.26	4.872	4.168	3.606	3.154	2.778
x1 = 0.4988	945.34	940.97	936.59	932.2	927.81	5.686	4.798	4.126	3.577	3.129
x1 = 0.6264	962.87	958.47	954.06	949.65	945.24	6.646	5.548	4.716	4.052	3.512
x1 = 0.8001	981.42	976.99	972.55	968.12	963.7	7.842	6.46	5.443	4.625	3.991
x1 = 0.9006	990.16	985.73	981.29	976.85	972.41	8.401	6.898	5.825	4.927	4.225
x1 = 1	997.25	992.8	988.35	983.9	979.46	8.952	7.287	6.044	5.097	4.358
